Experimental data taken from patent US10184115B2, “Mutated cellobiose dehydrogenase with increased substrate specificity” (DIRECTSENS GMBH, priority 2012, dated 2019).

Target: T1, Myriococcum thermophilum cellobiose dehydrogenase (CDH, SEQ ID NO: 1) variant N721D (Thermothelomyces myriococcoides, UniProt A9XK88, N721D)
T1 sequence (A9XK88 22-828 N721D): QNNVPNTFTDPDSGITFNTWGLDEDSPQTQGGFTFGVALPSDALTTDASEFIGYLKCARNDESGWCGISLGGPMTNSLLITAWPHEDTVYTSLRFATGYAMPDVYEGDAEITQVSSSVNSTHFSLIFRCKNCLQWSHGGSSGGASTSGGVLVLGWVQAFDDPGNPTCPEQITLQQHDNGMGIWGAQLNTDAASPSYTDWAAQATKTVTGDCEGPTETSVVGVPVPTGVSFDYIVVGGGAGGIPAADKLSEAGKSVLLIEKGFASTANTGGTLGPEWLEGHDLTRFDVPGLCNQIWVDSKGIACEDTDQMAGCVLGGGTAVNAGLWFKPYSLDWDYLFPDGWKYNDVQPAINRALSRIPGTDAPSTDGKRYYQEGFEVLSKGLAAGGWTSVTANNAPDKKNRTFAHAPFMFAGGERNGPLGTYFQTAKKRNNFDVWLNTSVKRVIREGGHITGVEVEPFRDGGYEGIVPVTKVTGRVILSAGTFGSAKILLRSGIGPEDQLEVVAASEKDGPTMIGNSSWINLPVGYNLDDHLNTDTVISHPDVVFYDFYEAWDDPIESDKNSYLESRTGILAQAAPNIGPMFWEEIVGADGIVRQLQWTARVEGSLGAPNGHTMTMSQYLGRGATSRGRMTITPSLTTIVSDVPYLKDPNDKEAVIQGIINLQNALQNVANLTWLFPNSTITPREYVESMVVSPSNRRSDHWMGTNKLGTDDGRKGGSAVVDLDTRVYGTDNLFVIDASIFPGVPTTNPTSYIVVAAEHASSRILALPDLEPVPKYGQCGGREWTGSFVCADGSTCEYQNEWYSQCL
Experiment: Steady-state kinetics, DCIP assay: M. thermophilum CDH N721D
Type: biochemical
Conditions: apparent, pH 4.5, 30° C.
Method: Enzyme activity was assayed at 30° C. using either the DCIP (Karapetyan et al., 2005 Journal of Biotechnology 121: 34-48) or cytochrome c (Canevascini et al., 1991, European Journal of Biochemistry 198: 43-52) as electron acceptor. […] Stock solutions of carbohydrates used for kinetic measurements were prepared in the respective buffer and allowed to stand overnight for mutarotation, while stock solutions of electron acceptors were prepared in water and immediately used. The reaction stoichiometry is 1 for the two-electron acceptor DCIP (1 mole of DCIP reduced per mole of carbohydrate oxidized), but 2 for the one-electron acceptor cytochrome c. Kinetic constants were calculated by fitting the observed data to the Henri-Michaelis-Menten equation or to the adapted model for substrate inhibition using nonlinear least-squares regression and the program SigmaPlot (Systat Software, San Jose, Calif., USA). […]
Recombinant wild-type CDH as well as variants were produced in 1 L baffled flasks. […] Increase in activity was monitored using the DCIP and the cytochrome c enzyme assays. […]
The sample was loaded on a 20 mL PHE Sepharose FF column (HR26/20) equilibrated with 50 mM Na-acetate buffer pH 5.5 containing 20% ammonium sulfate. […] Fractions were tested for CDH activity and pooled according to the highest Reinheitszahl (RZ, calculated from the absorbance ratio 420 nm/280 nm). […]

Structure (SMILES): OC[C@H]1OC(O)[C@H](O)[C@@H](O)[C@@H]1O (some centres unmarked) [Glucose, glucose]
- kcat: 1.9 s⁻¹
- kcat/KM: 5.9 M⁻¹ s⁻¹
